{"source": "BigSolDB 2.1", "data": [{"smiles": "COc1ccc(C=O)cc1O", "values": [{"measurement": "solubility (mole fraction)", "setting": "in ethanol, 278.15 K", "value": 0.0125}, {"measurement": "solubility (mole fraction)", "setting": "in ethanol, 283.15 K", "value": 0.0153}, {"measurement": "solubility (mole fraction)", "setting": "in ethanol, 288.15 K", "value": 0.0184}, {"measurement": "solubility (mole fraction)", "setting": "in ethanol, 293.15 K", "value": 0.0227}, {"measurement": "solubility (mole fraction)", "setting": "in ethanol, 298.15 K", "value": 0.0279}, {"measurement": "solubility (mole fraction)", "setting": "in ethanol, 303.15 K", "value": 0.0338}, {"measurement": "solubility (mole fraction)", "setting": "in ethanol, 308.15 K", "value": 0.0429}, {"measurement": "solubility (mole fraction)", "setting": "in ethanol, 313.15 K", "value": 0.0547}, {"measurement": "solubility (mole fraction)", "setting": "in ethanol, 318.15 K", "value": 0.0695}, {"measurement": "solubility (mole fraction)", "setting": "in ethyl acetate, 278.15 K", "value": 0.0203}, {"measurement": "solubility (mole fraction)", "setting": "in ethyl acetate, 283.15 K", "value": 0.0246}, {"measurement": "solubility (mole fraction)", "setting": "in ethyl acetate, 288.15 K", "value": 0.029}, {"measurement": "solubility (mole fraction)", "setting": "in ethyl acetate, 293.15 K", "value": 0.0342}, {"measurement": "solubility (mole fraction)", "setting": "in ethyl acetate, 298.15 K", "value": 0.0401}, {"measurement": "solubility (mole fraction)", "setting": "in ethyl acetate, 303.15 K", "value": 0.0478}, {"measurement": "solubility (mole fraction)", "setting": "in ethyl acetate, 308.15 K", "value": 0.0559}, {"measurement": "solubility (mole fraction)", "setting": "in ethyl acetate, 313.15 K", "value": 0.0655}, {"measurement": "solubility (mole fraction)", "setting": "in ethyl acetate, 318.15 K", "value": 0.0806}, {"measurement": "solubility (mole fraction)", "setting": "in formic acid, 278.15 K", "value": 0.0432}, {"measurement": "solubility (mole fraction)", "setting": "in formic acid, 283.15 K", "value": 0.0486}, {"measurement": "solubility (mole fraction)", "setting": "in formic acid, 288.15 K", "value": 0.0571}, {"measurement": "solubility (mole fraction)", "setting": "in formic acid, 293.15 K", "value": 0.068}, {"measurement": "solubility (mole fraction)", "setting": "in formic acid, 298.15 K", "value": 0.0832}, {"measurement": "solubility (mole fraction)", "setting": "in formic acid, 303.15 K", "value": 0.101}, {"measurement": "solubility (mole fraction)", "setting": "in formic acid, 308.15 K", "value": 0.115}, {"measurement": "solubility (mole fraction)", "setting": "in formic acid, 313.15 K", "value": 0.137}, {"measurement": "solubility (mole fraction)", "setting": "in formic acid, 318.15 K", "value": 0.165}, {"measurement": "solubility (mole fraction)", "setting": "in isobutanol, 278.15 K", "value": 0.0086}, {"measurement": "solubility (mole fraction)", "setting": "in isobutanol, 283.15 K", "value": 0.0098}, {"measurement": "solubility (mole fraction)", "setting": "in isobutanol, 288.15 K", "value": 0.0161}, {"measurement": "solubility (mole fraction)", "setting": "in isobutanol, 293.15 K", "value": 0.0192}, {"measurement": "solubility (mole fraction)", "setting": "in isobutanol, 298.15 K", "value": 0.0223}, {"measurement": "solubility (mole fraction)", "setting": "in isobutanol, 303.15 K", "value": 0.0271}, {"measurement": "solubility (mole fraction)", "setting": "in isobutanol, 308.15 K", "value": 0.0338}, {"measurement": "solubility (mole fraction)", "setting": "in isobutanol, 313.15 K", "value": 0.042}, {"measurement": "solubility (mole fraction)", "setting": "in isobutanol, 318.15 K", "value": 0.0499}, {"measurement": "solubility (mole fraction)", "setting": "in isobutyl acetate, 278.15 K", "value": 0.015}, {"measurement": "solubility (mole fraction)", "setting": "in isobutyl acetate, 283.15 K", "value": 0.0165}, {"measurement": "solubility (mole fraction)", "setting": "in isobutyl acetate, 288.15 K", "value": 0.0184}, {"measurement": "solubility (mole fraction)", "setting": "in isobutyl acetate, 293.15 K", "value": 0.0216}, {"measurement": "solubility (mole fraction)", "setting": "in isobutyl acetate, 298.15 K", "value": 0.025}, {"measurement": "solubility (mole fraction)", "setting": "in isobutyl acetate, 303.15 K", "value": 0.0305}, {"measurement": "solubility (mole fraction)", "setting": "in isobutyl acetate, 308.15 K", "value": 0.034}, {"measurement": "solubility (mole fraction)", "setting": "in isobutyl acetate, 313.15 K", "value": 0.0408}, {"measurement": "solubility (mole fraction)", "setting": "in isobutyl acetate, 318.15 K", "value": 0.0509}, {"measurement": "solubility (mole fraction)", "setting": "in isopropanol, 278.15 K", "value": 0.0072}, {"measurement": "solubility (mole fraction)", "setting": "in isopropanol, 283.15 K", "value": 0.0092}, {"measurement": "solubility (mole fraction)", "setting": "in isopropanol, 288.15 K", "value": 0.0118}, {"measurement": "solubility (mole fraction)", "setting": "in isopropanol, 293.15 K", "value": 0.0149}, {"measurement": "solubility (mole fraction)", "setting": "in isopropanol, 298.15 K", "value": 0.0186}, {"measurement": "solubility (mole fraction)", "setting": "in isopropanol, 303.15 K", "value": 0.0259}, {"measurement": "solubility (mole fraction)", "setting": "in isopropanol, 308.15 K", "value": 0.0296}, {"measurement": "solubility (mole fraction)", "setting": "in isopropanol, 313.15 K", "value": 0.0386}, {"measurement": "solubility (mole fraction)", "setting": "in isopropanol, 318.15 K", "value": 0.0576}, {"measurement": "solubility (mole fraction)", "setting": "in methanol, 278.15 K", "value": 0.0156}, {"measurement": "solubility (mole fraction)", "setting": "in methanol, 283.15 K", "value": 0.0188}, {"measurement": "solubility (mole fraction)", "setting": "in methanol, 288.15 K", "value": 0.0231}, {"measurement": "solubility (mole fraction)", "setting": "in methanol, 293.15 K", "value": 0.0291}, {"measurement": "solubility (mole fraction)", "setting": "in methanol, 298.15 K", "value": 0.0362}, {"measurement": "solubility (mole fraction)", "setting": "in methanol, 303.15 K", "value": 0.0445}, {"measurement": "solubility (mole fraction)", "setting": "in methanol, 308.15 K", "value": 0.059}, {"measurement": "solubility (mole fraction)", "setting": "in methanol, 313.15 K", "value": 0.0836}, {"measurement": "solubility (mole fraction)", "setting": "in methanol, 318.15 K", "value": 0.134}, {"measurement": "solubility (mole fraction)", "setting": "in methyl acetate, 278.15 K", "value": 0.0382}, {"measurement": "solubility (mole fraction)", "setting": "in methyl acetate, 283.15 K", "value": 0.0425}, {"measurement": "solubility (mole fraction)", "setting": "in methyl acetate, 288.15 K", "value": 0.0536}, {"measurement": "solubility (mole fraction)", "setting": "in methyl acetate, 293.15 K", "value": 0.0633}, {"measurement": "solubility (mole fraction)", "setting": "in methyl acetate, 298.15 K", "value": 0.074}, {"measurement": "solubility (mole fraction)", "setting": "in methyl acetate, 303.15 K", "value": 0.0866}, {"measurement": "solubility (mole fraction)", "setting": "in methyl acetate, 308.15 K", "value": 0.104}, {"measurement": "solubility (mole fraction)", "setting": "in methyl acetate, 313.15 K", "value": 0.121}, {"measurement": "solubility (mole fraction)", "setting": "in methyl acetate, 318.15 K", "value": 0.147}, {"measurement": "solubility (mole fraction)", "setting": "in n-butanol, 278.15 K", "value": 0.012}, {"measurement": "solubility (mole fraction)", "setting": "in n-butanol, 283.15 K", "value": 0.0149}, {"measurement": "solubility (mole fraction)", "setting": "in n-butanol, 288.15 K", "value": 0.017}, {"measurement": "solubility (mole fraction)", "setting": "in n-butanol, 293.15 K", "value": 0.0219}, {"measurement": "solubility (mole fraction)", "setting": "in n-butanol, 298.15 K", "value": 0.0253}, {"measurement": "solubility (mole fraction)", "setting": "in n-butanol, 303.15 K", "value": 0.0352}, {"measurement": "solubility (mole fraction)", "setting": "in n-butanol, 308.15 K", "value": 0.0445}, {"measurement": "solubility (mole fraction)", "setting": "in n-butanol, 313.15 K", "value": 0.0542}, {"measurement": "solubility (mole fraction)", "setting": "in n-butanol, 318.15 K", "value": 0.0641}, {"measurement": "solubility (mole fraction)", "setting": "in n-propanol, 278.15 K", "value": 0.0186}, {"measurement": "solubility (mole fraction)", "setting": "in n-propanol, 283.15 K", "value": 0.0209}, {"measurement": "solubility (mole fraction)", "setting": "in n-propanol, 288.15 K", "value": 0.0242}, {"measurement": "solubility (mole fraction)", "setting": "in n-propanol, 293.15 K", "value": 0.0284}, {"measurement": "solubility (mole fraction)", "setting": "in n-propanol, 298.15 K", "value": 0.0331}, {"measurement": "solubility (mole fraction)", "setting": "in n-propanol, 303.15 K", "value": 0.04}, {"measurement": "solubility (mole fraction)", "setting": "in n-propanol, 308.15 K", "value": 0.0455}, {"measurement": "solubility (mole fraction)", "setting": "in n-propanol, 313.15 K", "value": 0.0582}, {"measurement": "solubility (mole fraction)", "setting": "in n-propanol, 318.15 K", "value": 0.0751}]}]}
